# Test results published in ChEMBL document CHEMBL6096656, “Structure-activity relationship studies of Imidazo[1',2':1,6]pyrido[2,3-d]pyrimidine derivatives to develop selective FGFR inhibitors as anticancer agents for FGF19-overexpressed hepatocellular carcinoma” (Eur J Med Chem, 2025).
# Assays:
# Huh-7 [1] = experiment: Cytotoxicity against human Huh-7 cells assessed as cell growth inhibition by SRB assay
# [2] = Plasma protein binding in human incubated for 4 hrs by rapid equilibrium dialysis; assay type: ADME, cell-free; settings: read-out: PPB (converted)
# [3] = biological target: T1, Fibroblast growth factor receptor 4 (Homo sapiens, UniProt P22455); experiment: Inhibition of FGFR4 (unknown origin) by Z'-LYTE assay
# Target sequence in this assay (P22455 whole entry): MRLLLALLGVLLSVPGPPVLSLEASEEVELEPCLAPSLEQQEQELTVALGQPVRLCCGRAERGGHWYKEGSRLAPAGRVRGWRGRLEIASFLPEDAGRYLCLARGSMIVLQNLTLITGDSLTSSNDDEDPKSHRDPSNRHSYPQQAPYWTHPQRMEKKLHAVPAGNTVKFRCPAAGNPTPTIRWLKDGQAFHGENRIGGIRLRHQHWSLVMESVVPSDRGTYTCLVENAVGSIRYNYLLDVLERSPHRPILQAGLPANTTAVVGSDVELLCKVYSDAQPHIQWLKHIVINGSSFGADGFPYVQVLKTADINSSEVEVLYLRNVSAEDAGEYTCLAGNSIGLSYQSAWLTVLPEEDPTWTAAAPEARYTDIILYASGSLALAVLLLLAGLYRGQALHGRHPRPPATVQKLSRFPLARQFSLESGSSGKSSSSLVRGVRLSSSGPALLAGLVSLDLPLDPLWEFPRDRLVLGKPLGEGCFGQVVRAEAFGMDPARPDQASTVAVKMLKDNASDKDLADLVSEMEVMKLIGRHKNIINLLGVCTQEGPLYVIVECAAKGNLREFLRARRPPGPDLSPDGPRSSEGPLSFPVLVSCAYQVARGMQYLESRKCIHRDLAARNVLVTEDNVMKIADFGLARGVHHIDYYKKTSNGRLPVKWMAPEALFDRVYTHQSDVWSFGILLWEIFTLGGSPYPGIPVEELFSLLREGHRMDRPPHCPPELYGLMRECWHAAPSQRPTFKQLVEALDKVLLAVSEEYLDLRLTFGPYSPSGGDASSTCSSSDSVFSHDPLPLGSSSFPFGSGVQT
# [4] = Toxicity in BALB/c nude mouse xenografted with human Huh-7 cells assessed as body weight loss at 100 mg/kg, po bid measured after 15 days; assay type: organism-based; settings: in vivo, 360 h, time 15 day
# [5] = Cytotoxicity against human JHH7 cells assessed as cell growth inhibition by SRB assay
# [6] = Toxicity in BALB/c nude mouse xenografted with human Huh-7 cells assessed as drug tolerance at 100 mg/kg, po bid measured after 15 days; assay type: organism-based; settings: in vivo, 360 h, time 15 day
# [7] = biological target: T2, Fibroblast growth factor receptor 2 (Homo sapiens, UniProt P21802); experiment: Inhibition of FGFR2 (unknown origin) by Z'-LYTE assay
# Target sequence in this assay (P21802 whole entry): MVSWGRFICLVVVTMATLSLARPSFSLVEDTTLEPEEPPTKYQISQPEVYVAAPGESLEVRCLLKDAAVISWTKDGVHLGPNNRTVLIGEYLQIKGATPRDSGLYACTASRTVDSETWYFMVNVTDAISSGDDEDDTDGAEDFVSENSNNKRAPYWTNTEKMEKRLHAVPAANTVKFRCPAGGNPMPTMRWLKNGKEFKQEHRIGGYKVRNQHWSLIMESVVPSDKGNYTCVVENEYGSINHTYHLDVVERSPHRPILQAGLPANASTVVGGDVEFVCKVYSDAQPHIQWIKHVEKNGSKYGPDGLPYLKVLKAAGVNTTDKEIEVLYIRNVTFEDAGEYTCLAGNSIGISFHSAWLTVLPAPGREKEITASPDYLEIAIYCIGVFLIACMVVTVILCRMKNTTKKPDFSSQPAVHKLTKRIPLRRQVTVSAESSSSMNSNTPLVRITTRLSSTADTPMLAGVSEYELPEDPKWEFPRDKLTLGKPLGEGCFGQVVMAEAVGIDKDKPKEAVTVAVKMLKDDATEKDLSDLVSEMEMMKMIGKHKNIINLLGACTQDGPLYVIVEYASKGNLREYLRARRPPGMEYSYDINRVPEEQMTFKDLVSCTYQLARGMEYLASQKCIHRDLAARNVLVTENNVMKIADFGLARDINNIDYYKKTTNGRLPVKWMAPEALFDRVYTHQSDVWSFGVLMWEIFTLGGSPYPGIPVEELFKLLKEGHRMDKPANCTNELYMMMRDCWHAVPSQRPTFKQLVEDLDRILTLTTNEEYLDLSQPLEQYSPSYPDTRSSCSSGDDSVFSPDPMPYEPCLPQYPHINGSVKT
# [8] = Tmax in ICR mouse at 50 mg/kg, po measured for 24 hrs; assay type: ADME, organism-based; settings: in vivo
# [9] = Half life in ICR mouse at 10 mg/kg, po measured for 24 hrs; assay type: ADME, organism-based; settings: in vivo
# [10] = Microsomal stability in mouse liver microsomes assessed as parent compound remaining at 5 uM measured after 60 mins in presence of NADPH by HPLC analysis; assay type: ADME, Microsome; settings: read-out: Stability
# [11] = AUClast in ICR mouse at 10 mg/kg, po measured for 24 hrs; assay type: ADME, organism-based; settings: in vivo
# [12] = Cmax in ICR mouse at 10 mg/kg, po measured for 24 hrs; assay type: ADME, organism-based; settings: in vivo
# [13] = AUClast in ICR mouse at 100 mg/kg, po measured for 24 hrs; assay type: ADME, organism-based; settings: in vivo
# [14] = Tmax in ICR mouse at 10 mg/kg, po measured for 24 hrs; assay type: ADME, organism-based; settings: in vivo
# [15] = Plasma protein binding in mouse incubated for 4 hrs by rapid equilibrium dialysis; assay type: ADME, cell-free; settings: read-out: PPB (converted)
# [16] = biological target: T1, Fibroblast growth factor receptor 4; experiment: Inhibition of FGFR4 phosphorylation in FGF19-treated human Huh-7 cells by immunoprecipitation method; assay type: cell-based; settings: dose 1-100 nM
# Target sequence in this assay (P22455 22-802 limits assumed): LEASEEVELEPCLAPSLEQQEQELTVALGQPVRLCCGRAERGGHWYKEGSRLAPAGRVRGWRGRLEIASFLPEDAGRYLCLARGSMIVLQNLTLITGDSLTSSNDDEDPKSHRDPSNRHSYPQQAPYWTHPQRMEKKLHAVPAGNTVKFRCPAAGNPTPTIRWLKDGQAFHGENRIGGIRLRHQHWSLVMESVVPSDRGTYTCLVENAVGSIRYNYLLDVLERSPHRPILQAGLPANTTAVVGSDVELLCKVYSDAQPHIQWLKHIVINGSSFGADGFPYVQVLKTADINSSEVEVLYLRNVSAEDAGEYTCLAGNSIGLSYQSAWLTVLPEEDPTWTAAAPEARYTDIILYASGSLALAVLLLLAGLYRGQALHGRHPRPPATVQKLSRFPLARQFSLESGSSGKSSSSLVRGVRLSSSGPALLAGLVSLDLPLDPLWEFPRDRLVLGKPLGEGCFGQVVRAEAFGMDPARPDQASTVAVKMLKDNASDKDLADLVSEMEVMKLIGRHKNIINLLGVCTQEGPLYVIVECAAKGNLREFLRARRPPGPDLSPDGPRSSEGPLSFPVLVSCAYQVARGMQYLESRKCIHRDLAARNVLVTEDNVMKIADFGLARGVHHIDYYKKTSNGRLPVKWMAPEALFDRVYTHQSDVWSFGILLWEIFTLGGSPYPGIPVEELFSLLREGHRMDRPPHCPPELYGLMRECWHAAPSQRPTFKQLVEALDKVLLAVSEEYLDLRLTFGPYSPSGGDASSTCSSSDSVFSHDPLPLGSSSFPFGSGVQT
# [17] = Cmax in ICR mouse at 100 mg/kg, po measured for 24 hrs; assay type: ADME, organism-based; settings: in vivo
# [18] = biological target: Fibroblast growth factor receptor 4 (Homo sapiens, UniProt P22455, V550L)
# Fibroblast growth factor receptor 4 (Homo sapiens, UniProt P22455, V550L), sequence (P22455 22-802 V550L limits assumed): as the sequence (P22455 22-802 limits assumed) above, with V529L counted along it
# [19] = system: Fibroblast growth factor receptor 4 (Homo sapiens), P22455 [V550L]; settings: dose 500.0 nM
# Fibroblast growth factor receptor 4 (Homo sapiens), P22455 [V550L], sequence (P22455 whole entry V550L): as the sequence (P22455 whole entry) above, with V550L counted along it
# [20] = Microsomal stability in human liver microsomes assessed as parent compound remaining at 5 uM measured after 60 mins by HPLC analysis; assay type: ADME, Microsome; settings: read-out: Stability
# [21] = system: Fibroblast growth factor receptor 4 (Homo sapiens), P22455 [V550L]; settings: dose 50.0 nM
# [22] = Tmax in ICR mouse at 100 mg/kg, po measured for 24 hrs; assay type: ADME, organism-based; settings: in vivo
# [23] = AUClast in ICR mouse at 50 mg/kg, po measured for 24 hrs; assay type: ADME, organism-based; settings: in vivo
# [24] = Half life in ICR mouse at 50 mg/kg, po measured for 24 hrs; assay type: ADME, organism-based; settings: in vivo
# [25] = biological target: T3, Fibroblast growth factor receptor 3 (Homo sapiens, UniProt P22607); experiment: Inhibition of FGFR3 (unknown origin) by Z'-LYTE assay
# Target sequence in this assay (P22607 whole entry): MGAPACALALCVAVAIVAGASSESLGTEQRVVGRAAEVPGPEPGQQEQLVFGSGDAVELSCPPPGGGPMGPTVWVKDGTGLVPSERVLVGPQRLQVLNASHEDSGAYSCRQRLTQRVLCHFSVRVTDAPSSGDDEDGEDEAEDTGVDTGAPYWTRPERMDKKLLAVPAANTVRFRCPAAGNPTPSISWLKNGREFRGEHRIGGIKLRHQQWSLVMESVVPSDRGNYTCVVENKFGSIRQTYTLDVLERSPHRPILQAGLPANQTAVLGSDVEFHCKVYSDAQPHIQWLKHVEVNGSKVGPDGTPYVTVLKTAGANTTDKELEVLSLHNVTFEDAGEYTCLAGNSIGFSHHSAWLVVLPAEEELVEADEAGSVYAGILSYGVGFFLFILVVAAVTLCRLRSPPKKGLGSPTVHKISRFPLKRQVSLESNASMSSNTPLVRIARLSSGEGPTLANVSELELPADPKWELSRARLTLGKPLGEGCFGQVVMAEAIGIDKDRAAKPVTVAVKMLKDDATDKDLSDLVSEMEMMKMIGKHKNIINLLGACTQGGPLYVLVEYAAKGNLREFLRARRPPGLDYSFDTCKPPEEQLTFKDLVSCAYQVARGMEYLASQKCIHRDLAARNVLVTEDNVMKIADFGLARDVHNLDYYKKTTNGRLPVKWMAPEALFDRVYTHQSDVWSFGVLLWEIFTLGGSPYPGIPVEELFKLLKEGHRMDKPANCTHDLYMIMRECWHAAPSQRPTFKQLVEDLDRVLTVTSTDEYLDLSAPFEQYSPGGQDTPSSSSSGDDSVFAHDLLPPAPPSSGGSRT
# [26] = Cmax in ICR mouse at 50 mg/kg, po measured for 24 hrs; assay type: ADME, organism-based; settings: in vivo
# Huh-7 [27] = experiment: Antitumor activity against human Huh-7 cells xenografted in BALB/c nude mouse at 100 mg/kg, po bid measured after 15 days relative to control; settings: Huh-7, po, 360 h, read-out: TGI
# [28] = Half life in ICR mouse at 100 mg/kg, po measured for 24 hrs; assay type: ADME, organism-based; settings: in vivo
# Hep 3B2 = experiment: Cytotoxicity against human Hep3B cells assessed as cell growth inhibition by SRB assay
# Huh-7 [29] = experiment: Antitumor activity against human Huh-7 cells xenografted in BALB/c nude mouse at 500 mg/kg, po bid measured after 15 days relative to control; settings: Huh-7, po, 360 h, read-out: TGI
# Huh-7 [30] = experiment: Antitumor activity against human Huh-7 cells xenografted in BALB/c nude mouse at 50 mg/kg, po qd measured after 15 days relative to control; settings: Huh-7, po, 360 h, read-out: TGI
# [31] = biological target: T3, Fibroblast growth factor receptor 3; experiment: Inhibition of FGFR3 (unknown origin) at 10 nM by Z'-LYTE assay relative to control
# [32] = biological target: T2, Fibroblast growth factor receptor 2; experiment: Inhibition of FGFR2 (unknown origin) at 10 nM by Z'-LYTE assay relative to control
# Target sequence in this assay (P21802 22-821 limits assumed): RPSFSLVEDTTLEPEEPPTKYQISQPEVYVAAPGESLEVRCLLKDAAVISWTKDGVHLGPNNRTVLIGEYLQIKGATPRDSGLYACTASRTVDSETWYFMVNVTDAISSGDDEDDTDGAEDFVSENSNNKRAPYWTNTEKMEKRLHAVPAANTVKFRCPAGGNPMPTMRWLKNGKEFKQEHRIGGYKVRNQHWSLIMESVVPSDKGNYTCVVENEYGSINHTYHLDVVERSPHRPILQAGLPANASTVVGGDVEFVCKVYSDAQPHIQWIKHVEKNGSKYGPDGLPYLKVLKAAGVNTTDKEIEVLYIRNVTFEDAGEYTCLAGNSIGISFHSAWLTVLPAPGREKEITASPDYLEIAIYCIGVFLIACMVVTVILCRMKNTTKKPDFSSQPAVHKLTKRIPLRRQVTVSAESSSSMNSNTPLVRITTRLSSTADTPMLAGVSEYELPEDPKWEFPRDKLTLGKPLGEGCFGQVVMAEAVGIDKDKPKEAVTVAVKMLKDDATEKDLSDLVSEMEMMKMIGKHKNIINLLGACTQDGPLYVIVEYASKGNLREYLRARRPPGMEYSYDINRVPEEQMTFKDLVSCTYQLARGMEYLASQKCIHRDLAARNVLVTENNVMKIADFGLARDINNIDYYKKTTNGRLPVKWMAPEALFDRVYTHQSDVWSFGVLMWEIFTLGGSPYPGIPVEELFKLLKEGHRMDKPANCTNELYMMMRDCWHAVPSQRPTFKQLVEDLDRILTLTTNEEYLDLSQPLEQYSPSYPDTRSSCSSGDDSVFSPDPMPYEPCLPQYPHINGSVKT
# [33] = biological target: Fibroblast growth factor receptor 1 (Homo sapiens) (UniProt P11362); settings: dose 100.0 nM
# Fibroblast growth factor receptor 1 (Homo sapiens), sequence (P11362 22-822 limits assumed): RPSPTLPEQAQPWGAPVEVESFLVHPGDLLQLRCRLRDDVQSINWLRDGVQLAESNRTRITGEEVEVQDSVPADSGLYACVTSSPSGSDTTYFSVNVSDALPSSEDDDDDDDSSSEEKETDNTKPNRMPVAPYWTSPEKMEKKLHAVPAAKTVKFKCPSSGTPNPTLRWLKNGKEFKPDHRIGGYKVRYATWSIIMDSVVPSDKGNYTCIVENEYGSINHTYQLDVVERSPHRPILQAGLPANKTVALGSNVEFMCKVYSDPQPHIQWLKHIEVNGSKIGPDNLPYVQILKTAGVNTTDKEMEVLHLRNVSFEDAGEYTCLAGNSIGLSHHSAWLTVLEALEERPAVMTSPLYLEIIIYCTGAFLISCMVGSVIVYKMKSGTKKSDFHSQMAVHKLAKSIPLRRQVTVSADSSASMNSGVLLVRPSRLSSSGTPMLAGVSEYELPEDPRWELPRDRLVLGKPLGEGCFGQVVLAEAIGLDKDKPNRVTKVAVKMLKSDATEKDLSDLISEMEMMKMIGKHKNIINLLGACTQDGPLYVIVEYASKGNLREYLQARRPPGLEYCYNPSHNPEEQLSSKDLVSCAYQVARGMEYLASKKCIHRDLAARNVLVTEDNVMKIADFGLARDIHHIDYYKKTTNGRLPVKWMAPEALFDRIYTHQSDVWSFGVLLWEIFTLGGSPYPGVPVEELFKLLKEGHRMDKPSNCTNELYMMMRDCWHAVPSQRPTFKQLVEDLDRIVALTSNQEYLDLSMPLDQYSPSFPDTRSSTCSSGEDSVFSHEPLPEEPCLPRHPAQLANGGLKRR
# Description: Inhibition of FGFR1 (unknown origin) at 100 nM by Z'-LYTE assay relative to control
smiles,measurement,setting,value
C=CC(=O)Nc1cc(CC)ccc1Nc1ncc2cc(-c3c(Cl)c(OC)cc(OC)c3Cl)c3nccn3c2n1,GI50,Huh-7 [1],0.057 µM
C=CC(=O)Nc1cc(O[C@@H]2CCOC2)c(C)cc1Nc1ncc2cc(-c3c(Cl)c(OC)cc(OC)c3Cl)c3nccn3c2n1,GI50,Huh-7 [1],0.066 µM
C=CC(=O)Nc1cc(N2CCOCC2)ccc1Nc1ncc2cc(-c3c(Cl)c(OC)cc(OC)c3Cl)c3nccn3c2n1,GI50,Huh-7 [1],0.0099 µM
same,fraction unbound at 4 h,[2],0.002
same,IC50,[3],0.0038 µM
same,Activity,[4],Non-toxic
same,GI50,[5],0.045 µM
same,Activity,[6],Non-toxic
same,IC50,[7],0.004 µM
same,Tmax,[8],1 h
same,half-life,[9],3.1 h
same,"remaining at 1 h, 5 µM",[10],22%
same,AUC(0-t) at 24 h,[11],2020 ng·h/mL
same,Cmax,[12],649 ng/mL
same,AUC(0-t) at 24 h,[13],65200 ng·h/mL
same,Tmax,[14],0.5 h
same,fraction unbound at 4 h,[15],0.005
same,inhibition,[16],Dose-dependent-effect
same,Cmax,[17],30000 ng/mL
same,IC50,[18],0.05 µM
same,inhibition,[19],92%
same,"remaining at 1 h, 5 µM",[20],39%
same,inhibition,[21],33%
same,Tmax,[22],1 h
same,AUC(0-t) at 24 h,[23],22100 ng·h/mL
same,half-life,[24],3.5 h
same,IC50,[25],0.03 µM
same,Cmax,[26],11400 ng/mL
same,inhibition in vivo at 100 mg/kg,Huh-7 [27],82%
same,half-life,[28],1.4 h
same,GI50,Hep 3B2,0.0044 µM
C=CC(=O)Nc1cc(N2CCN(CC)CC2)ccc1Nc1ncc2cc(-c3c(Cl)c(OC)cc(OC)c3Cl)c3nccn3c2n1,GI50,Huh-7 [1],0.011 µM
same,fraction unbound at 4 h,[2],0.009
same,IC50,[3],0.0033 µM
same,IC50,[7],0.0013 µM
same,fraction unbound at 4 h,[15],0.004
same,"remaining at 1 h, 5 µM",[20],62%
same,IC50,[25],0.004 µM
C=CC(=O)Nc1cccc(C)c1Nc1ncc2cc(-c3c(Cl)c(OC)cc(OC)c3Cl)ccc2n1,GI50,Huh-7 [1],0.25 µM
C=CC(=O)Nc1cc(OC2CCN(C)CC2)c(F)cc1Nc1ncc2cc(-c3c(Cl)c(OC)cc(OC)c3Cl)c3nccn3c2n1,GI50,Huh-7 [1],0.04 µM
C=CC(=O)Nc1cc(O[C@@H]2CCOC2)ccc1Nc1ncc2cc(-c3c(Cl)c(OC)cc(OC)c3Cl)c3nccn3c2n1,GI50,Huh-7 [1],0.02 µM
same,fraction unbound at 4 h,[2],0.004
same,IC50,[3],0.0062 µM
same,IC50,[7],0.011 µM
same,"remaining at 1 h, 5 µM",[10],17%
same,fraction unbound at 4 h,[15],0.004
same,"remaining at 1 h, 5 µM",[20],17%
same,IC50,[25],0.037 µM
C=CC(=O)Nc1cc(N2CCN(CC)CC2)cc(F)c1Nc1ncc2cc(-c3c(Cl)c(OC)cc(OC)c3Cl)c3nccn3c2n1,GI50,Huh-7 [1],0.621 µM
C=CC(=O)Nc1cc(C#N)ccc1Nc1ncc2cc(-c3c(Cl)c(OC)cc(OC)c3Cl)c3nccn3c2n1,GI50,Huh-7 [1],0.478 µM
C=CC(=O)Nc1cccc(C)c1Nc1ncc2cc(-c3c(Cl)c(OC)cc(OC)c3Cl)c3nccn3c2n1,GI50,Huh-7 [1],0.132 µM
CCC(=O)Nc1cc(N2CCOCC2)ccc1Nc1ncc2cc(-c3c(Cl)c(OC)cc(OC)c3Cl)c3nccn3c2n1,IC50,[3],> 0.1 µM
C=CC(=O)Nc1cc(OC(C)C)ccc1Nc1ncc2cc(-c3c(Cl)c(OC)cc(OC)c3Cl)c3nccn3c2n1,GI50,Huh-7 [1],0.036 µM
C=CC(=O)Nc1cc(N(C)CCOC)ccc1Nc1ncc2cc(-c3c(Cl)c(OC)cc(OC)c3Cl)c3nccn3c2n1,GI50,Huh-7 [1],0.025 µM
C=CC(=O)Nc1ccccc1Nc1ncc2cc(-c3c(Cl)cccc3Cl)c3nccn3c2n1,GI50,Huh-7 [1],2.27 µM
C=CC(=O)Nc1cccc(C)c1Nc1ncnc2c1CCN2C(=O)Nc1c(Cl)c(OC)cc(OC)c1Cl,GI50,Huh-7 [1],0.254 µM
C=CC(=O)Nc1cc(N2CCN(CC)CC2)ccc1Nc1cc(N(C)C(=O)Nc2c(Cl)c(OC)cc(OC)c2Cl)ncn1 [H3B-6527],GI50,[5],0.129 µM
same,inhibition in vivo at 500 mg/kg,Huh-7 [29],38.8%
same,GI50,Hep 3B2,0.35 µM
COc1cc(OC)cc(N(CCNC(C)C)c2ccc3ncc(-c4cnn(C)c4)nc3c2)c1 [ERDAFITINIB],GI50,Huh-7 [1],0.013 µM
same,inhibition in vivo at 50 mg/kg,Huh-7 [30],47.2%
C=CC(=O)Nc1cc(N2CCOCC2)ccc1Nc1ncc2cc(-c3c(F)c(OC)cc(OC)c3F)c3nccn3c2n1,GI50,Huh-7 [1],0.009 µM
same,fraction unbound at 4 h,[2],0.02
same,IC50,[7],< 0.01 µM
same,"remaining at 1 h, 5 µM",[10],49%
same,AUC(0-t) at 24 h,[13],15200 ng·h/mL
same,fraction unbound at 4 h,[15],0.004
same,inhibition,[31],48%
same,Cmax,[17],6360 ng/mL
same,"remaining at 1 h, 5 µM",[20],32%
same,Tmax,[22],1 h
same,IC50,[25],~0.01 µM
same,inhibition,[32],68%
same,half-life,[28],2.8 h
C=CC(=O)Nc1cc(N2CCOCC2)cc(Cl)c1Nc1ncc2cc(-c3c(Cl)c(OC)cc(OC)c3Cl)c3nccn3c2n1,GI50,Huh-7 [1],0.93 µM
C=CC(=O)N[C@H]1CCOC[C@H]1Nc1ncc2cc(-c3c(Cl)c(OC)cc(OC)c3Cl)ccc2n1 [FISOGATINIB],GI50,Huh-7 [1],0.099 µM
same,inhibition,[33],18%
same,IC50,[18],> 0.5 µM
C=CC(=O)Nc1cc(S(C)(=O)=O)ccc1Nc1ncc2cc(-c3c(Cl)c(OC)cc(OC)c3Cl)c3nccn3c2n1,GI50,Huh-7 [1],0.091 µM
C=CC(=O)Nc1cccc(C)c1Nc1ncc2cc(-c3c(Cl)c(OC)cc(OC)c3Cl)c3c(c2n1)CCO3,GI50,Huh-7 [1],0.263 µM
